Converted amounts (≈) assume the structure as drawn.
Tested on: S aureus A798
Assay: Minimal inhibitory concentration (MIC), microdilution method in cation-adjusted Mueller-Hinton Broth following NCCLS guidelines
Assay type: cell-based
Conditions: pH of test medium 7.2-7.3
Procedure, shortened: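 Broth microdilution per NCCLS M7-A4 in cation-adjusted Mueller-Hinton broth at pH 7.2-7.3; MIC reported in mg/l.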

| Structure (SMILES) | MIC [mg/L] |
| --- | --- |
| COc1ccc2nccc(N3CC(NC[C@@H]4CN(c5ccc6c(c5)NC(=O)CO6)C(=O)O4)C3)c2c1 [Example 156, 6-((R)-5-{[1-(6-Methoxy-quinolin-4-yl)-azetidin-3-ylamino]-methyl}-2-oxo-oxazolidin-3-yl)-4H-benzo[1,4]oxazin-3-one] | ≤ 0.031 |
| COc1cnc2cccc(N3CC(NC[C@@H]4CN(c5ccc6c(c5)NC(=O)CS6)C(=O)O4)C3)c2c1 [Example 157, 6-((R)-5-{[1-(3-Methoxy-quinolin-5-yl)-azetidin-3-ylamino]-methyl}-2-oxo-oxazolidin-3-yl)-4H-benzo[1,4]thiazin-3-one] | ≤ 0.031 |
| COc1ccc2cccc(N3CC(NC[C@@H]4CN(c5ccc6c(c5)NC(=O)CS6)C(=O)O4)C3)c2n1 [Example 158, 6-((R)-5-{[1-(2-Methoxy-quinolin-8-yl)-azetidin-3-ylamino]-methyl}-2-oxo-oxazolidin-3-yl)-4H-benzo[1,4]thiazin-3-one] | ≤ 0.031 |
| COc1ccc2ccc(F)c(N3CC(NC[C@@H]4CN(c5ccc6c(c5)NC(=O)CS6)C(=O)O4)C3)c2n1 [Example 159, 6-((R)-5-{[1-(7-Fluoro-2-methoxy-quinolin-8-yl)-azetidin-3-ylamino]-methyl}-2-oxo-oxazolidin-3-yl)-4H-benzo[1,4]thiazin-3-one] | ≤ 0.031 |
| O=C1CSc2ccc(N3C[C@@H](CNC4CN(c5ccnc6ccc(F)cc56)C4)OC3=O)cc2N1 [Example 160, 6-((R)-5-{[1-(6-Fluoro-quinolin-4-yl)-azetidin-3-ylamino]-methyl}-2-oxo-oxazolidin-3-yl)-4H-benzo[1,4]thiazin-3-one] | ≤ 0.031 |
| N#Cc1ccc2nccc(N3CC(NC[C@@H]4CN(c5ccc6c(c5)NC(=O)CS6)C(=O)O4)C3)c2c1 [Example 161, 4-(3-{[(R)-2-oxo-3-(3-oxo-3,4-dihydro-2H-benzo[1,4]thiazin-6-yl)-oxazolidin-5-ylmethyl]amino}-azetidin-1-yl)-quinoline-6-carbonitrile] | ≤ 0.031 |
| COc1ccc2cccc(N3CC(CNC[C@@H]4CN(c5ccc6c(c5)NC(=O)CS6)C(=O)O4)C3)c2n1 [Example 162, 6-[(R)-5-({[1-(2-Methoxy-quinolin-8-yl)-azetidin-3-ylmethyl]-amino}-methyl)-2-oxo-oxazolidin-3-yl]-4H-benzo[1,4]thiazin-3-one] | ≤ 0.031 |
| COc1cnc2cccc(N3CC(CNC[C@@H]4CN(c5ccc6c(c5)NC(=O)CS6)C(=O)O4)C3)c2c1 [Example 163, 6-[(R)-5-({[1-(3-Methoxy-quinolin-5-yl)-azetidin-3-ylmethyl]-amino}-methyl)-2-oxo-oxazolidin-3-yl]-4H-benzo[1,4]thiazin-3-one] | ≤ 0.031 |
| COc1ccc2ncc(F)c(N3CC[C@H](NC[C@H]4CN(c5ccc6c(c5)NC(=O)CS6)C(=O)O4)C3)c2n1 [Example 164, 6-((S)-5-{[(S)-1-(3-Fluoro-6-methoxy-[1,5]naphthyridin-4-yl)-pyrrolidin-3-ylamino]methyl}-2-oxo-oxazolidin-3-yl)-4H-benzo[1,4]thiazin-3-one] | ≤ 0.031 |
| COc1ccc2nccc(N3CCC(NC[C@H]4CN(c5ccc6c(c5)NC(=O)CS6)C(=O)O4)CC3)c2n1 [Example 165, 6-((S)-5-{[1-(6-Methoxy-[1,5]naphthyridin-4-yl)-piperidin-4-ylamino]-methyl}-2-oxo-oxazolidin-3-yl)-4H-benzo[1,4]thiazin-3-one] | ≤ 0.031 |
| COc1ccc2nccc(N3CCCN(C[C@H]4CN(c5ccc6c(c5)NC(=O)CS6)C(=O)O4)CC3)c2n1 [Example 166, 6-{(S)-5-[4-(6-Methoxy-[1,5]naphthyridin-4-yl)-[1,4]diazepan-1-ylmethyl]-2-oxo-oxazolidin-3-yl}-4H-benzo[1,4]thiazin-3-one] | ≤ 0.031 |
| COc1ccc2nccc(N3CC[C@H](CNC[C@@H]4CN(c5ccc6c(c5)NC(=O)CO6)C(=O)O4)C3)c2n1 [Example 167, 6-[(R)-5-({[(R)-1-(6-Methoxy-[1,5]naphthyridin-4-yl)-pyrrolidin-3-ylmethyl]amino}-methyl)-2-oxo-oxazolidin-3-yl]-4H-benzo[1,4]oxazin-3-one] | ≤ 0.031 |
| COc1ccc2nccc(N3CC[C@@H](CNC[C@@H]4CN(c5ccc6c(c5)NC(=O)CO6)C(=O)O4)C3)c2n1 [Example 168, 6-[(R)-5-({[(S)-1-(6-Methoxy-[1,5]naphthyridin-4-yl)-pyrrolidin-3-ylmethyl]-amino}-methyl)-2-oxo-oxazolidin-3-yl]-4H-benzo[1,4]oxazin-3-one] | ≤ 0.031 |
| COc1ccc(N2C[C@@H](CN[C@H]3CCN(c4c(F)cnc5ccc(OC)nc45)C3)OC2=O)cc1 [Example 169, (R)-5-{[(S)-1-(3-Fluoro-6-methoxy-[1,5]naphthyridin-4-yl)-pyrrolidin-3-ylamino]-methyl}-3-(4-methoxy-phenyl)-oxazolidin-2-one] | 0.5 (≈ 1.07 µM) |
| CCOc1ccc(N2C[C@@H](CN[C@H]3CCN(c4c(F)cnc5ccc(OC)nc45)C3)OC2=O)cc1 [Example 170, (R)-3-(4-Ethoxy-phenyl)-5-{[(S)-1-(3-fluoro-6-methoxy-[1,5]naphthyridin-4-yl)-pyrrolidin-3-ylamino]-methyl}-oxazolidin-2-one] | 0.25 (≈ 0.519 µM) |
| COc1ccc2ncc(F)c(N3CC[C@H](NC[C@@H]4CN(c5ccc(OC(F)F)cc5)C(=O)O4)C3)c2n1 [Example 171, (R)-3-(4-Difluoromethoxy-phenyl)-5-{[(S)-1-(3-fluoro-6-methoxy-[1,5]naphthyridin-4-yl)-pyrrolidin-3-ylamino]-methyl}-oxazolidin-2-one] | 0.063 (≈ 0.125 µM) |
| COc1ccc2nccc(N3CC[C@H](NC[C@@H]4CN(c5ccc6c(c5)NC(=O)CS6)C(=O)O4)C3)c2c1 [Example 172, 6-((R)-5-{[(S)-1-(6-Methoxy-quinolin-4-yl)-pyrrolidin-3-ylamino]-methyl}-2-oxo-oxazolidin-3-yl)-4H-benzo[1,4]thiazin-3-one] | ≤ 0.031 |
| COc1ccc2nccc(N3CC[C@@H](CNC[C@@H]4CN(c5ccc6c(c5)NC(=O)CS6)C(=O)O4)C3)c2c1 [Example 173, 6-[(R)-5-({[(S)-1-(6-Methoxy-quinolin-4-yl)-pyrrolidin-3-ylmethyl]-amino}-methyl)-2-oxo-oxazolidin-3-yl]-4H-benzo[1,4]thiazin-3-one] | ≤ 0.031 |
| COc1ccc(N2C[C@@H](CNC3CN(c4ccnc5ccc(OC)nc45)C3)OC2=O)cc1 [Example 174, (R)-5-{[1-(6-Methoxy-[1,5]naphthyridin-4-yl)-azetidin-3-ylamino]-methyl}-3-(4-methoxy-phenyl)-oxazolidin-2-one] | ≤ 0.031 |
| CCOc1ccc(N2C[C@@H](CNC3CN(c4ccnc5ccc(OC)nc45)C3)OC2=O)cc1 [Example 175, (R)-3-(4-Ethoxy-phenyl)-5-{[1-(6-methoxy-[1,5]naphthyridin-4-yl)-azetidin-3-ylamino]-methyl}-oxazolidin-2-one] | ≤ 0.031 |
| COc1ccc2nccc(N3CC(NC[C@@H]4CN(c5ccc(OC(F)F)cc5)C(=O)O4)C3)c2n1 [Example 176, (R)-3-(4-Difluoromethoxy-phenyl)-5-{[1-(6-methoxy-[1,5]naphthyridin-4-yl)-azetidin-3-ylamino]-methyl}-oxazolidin-2-one] | ≤ 0.031 |
| O=C1CSc2ccc(N3C[C@@H](CN[C@@H]4CCN(c5ccnc6ccc(F)cc56)C4)OC3=O)cc2N1 [Example 177, 6-((R)-5-{[(R)-1-(6-Fluoro-quinolin-4-yl)-pyrrolidin-3-ylamino]-methyl}-2-oxo-oxazolidin-3-yl)-4H-benzo[1,4]thiazin-3-one] | 0.125 (≈ 0.253 µM) |

Source: patent US8217029B2, “Oxazolidinone antibiotics” (Actelion Pharmaceuticals Ltd, priority 2007, dated 2012)
